Calls of active or inactive are those of the source. The calls are words filed in the database; no cut-off is given here.
How the values were obtained:
[1] = test system: U-937; experiment: Cytotoxicity against human U937 cells up to 100 ug/mL by WST-1 assay; format: functional, cell-based
[2] = test system: Botryococcus braunii; experiment: Antimicrobial activity against Botryococcus braunii at 0.8 to 100 ug/mL by serial dilution method; format: functional
[3] = test system: Chromobacterium violaceum; experiment: Antimicrobial activity against Chromobacterium violaceum at 100 ug/mL after 24 hrs by serial dilution method; format: functional, organism-based
[4] = test system: Rhodotorula glutinis; experiment: Antimicrobial activity against Rhodotorula glutinis at 100 ug/mL after 24 hrs by serial dilution method; format: functional, organism-based
[5] = test system: Scenedesmus bajacalifornicus; experiment: Antimicrobial activity against Scenedesmus bajacalifornicus at 0.8 to 100 ug/mL by serial dilution method; format: functional; details: Tetradesmus bajacalifornicus
[6] = test system: Bracteacoccus; experiment: Antimicrobial activity against Bracteacoccus sp. at 0.8 to 100 ug/mL by serial dilution method; format: functional
[7] = test system: Chlamydomonas; experiment: Antimicrobial activity against Chlamydomonas sp. at 0.8 to 100 ug/mL by serial dilution method; format: functional
[8] = test system: Pseudococcomyxa simplex; experiment: Antimicrobial activity against Pseudococcomyxa simplex at 0.8 to 100 ug/mL by serial dilution method; format: functional
[9] = test system: Escherichia coli; experiment: Antimicrobial activity against Escherichia coli at 100 ug/mL after 24 hrs by serial dilution method; format: functional, organism-based
[10] = test system: Nocardia; experiment: Antimicrobial activity against Nocardia flava at 100 ug/mL after 24 hrs by serial dilution method; format: functional
[11] = test system: Candida albicans; experiment: Antimicrobial activity against Candida albicans at 100 ug/mL after 24 hrs by serial dilution method; format: functional, organism-based
[12] = test system: Schizosaccharomyces pombe; experiment: Antimicrobial activity against Schizosaccharomyces pombe at 100 ug/mL after 24 hrs by serial dilution method; format: functional, organism-based
[13] = test system: Staphylococcus aureus; experiment: Antimicrobial activity against Staphylococcus aureus at 100 ug/mL after 24 hrs by serial dilution method; format: functional, organism-based
[14] = test system: Mucor hiemalis; experiment: Antimicrobial activity against Mucor hiemalis at 100 ug/mL by serial dilution method; format: functional, organism-based
[15] = test system: Wickerhamomyces anomalus; experiment: Antimicrobial activity against Pichia anomala at 100 ug/mL after 24 hrs by serial dilution method; format: functional, organism-based
[16] = test system: Micrococcus luteus; experiment: Antimicrobial activity against Micrococcus luteus at 100 ug/mL after 24 hrs by serial dilution method; format: functional, organism-based
[17] = test system: Pseudococcomyxa simplex; experiment: Antimicrobial activity against Pseudococcomyxa simplex at 100 ug/mL by serial dilution method; format: functional

| Compound | Activity [1] | growth inhibition (GI) [2] | growth inhibition (GI) [3] | growth inhibition (GI) [4] | growth inhibition (GI) [5] | growth inhibition (GI) [6] | growth inhibition (GI) [7] | growth inhibition (GI) [8] | growth inhibition (GI) [9] | growth inhibition (GI) [10] | growth inhibition (GI) [11] | growth inhibition (GI) [12] | growth inhibition (GI) [13] | growth inhibition (GI) [14] | growth inhibition (GI) [15] | growth inhibition (GI) [16] | growth inhibition (GI) [17] |
| --- | --- | --- | --- | --- | --- | --- | --- | --- | --- | --- | --- | --- | --- | --- | --- | --- | --- |
| CCCC(=O)NCC(=O)c1ccc(O)cc1 | inactive | inactive | inactive | inactive | inactive | inactive | inactive | inactive | inactive | inactive | inactive | inactive | inactive | inactive | inactive | inactive | – |
| CC(=O)NCC(=O)c1ccc(O)cc1 | inactive | inactive | inactive | inactive | inactive | inactive | inactive | inactive | inactive | inactive | inactive | inactive | inactive | inactive | inactive | inactive | – |
| CCCCCC(=O)NCC(=O)c1ccc(O)cc1 | inactive | inactive | inactive | inactive | inactive | inactive | inactive | inactive | inactive | inactive | inactive | inactive | inactive | inactive | inactive | inactive | – |
| CC(C)CCC(=O)NCC(=O)c1ccc(O)cc1 | inactive | inactive | inactive | inactive | inactive | inactive | inactive | inactive | inactive | inactive | inactive | inactive | inactive | inactive | inactive | inactive | – |
| CC(C)CC(=O)N/C=C/c1ccc(O)cc1 | inactive | inactive | inactive | inactive | inactive | inactive | inactive | – | inactive | inactive | inactive | inactive | inactive | inactive | inactive | inactive | Active |
| CC(C)CC(=O)NCC(=O)c1ccc(O)cc1 | inactive | inactive | inactive | inactive | inactive | inactive | inactive | inactive | inactive | inactive | inactive | inactive | inactive | inactive | inactive | inactive | – |

Reference: ChEMBL document CHEMBL1811840, “p-hydroxyacetophenone amides from Cystobacter ferrugineus, strain Cb G35” (J Nat Prod, 2011)
